In patent US20260325504A1, “Genetically Engineered Human Pituitary Corticotroph Tumor Organoids Exhibit Divergent Responses to Selective Glucocorticoid Receptor Modulators” (Corcept Therapeutics Incorporated, priority 2022, published 2026):
“Also recorded” adds a separate entry of the source.

Tests used:
Hedgehog pathway = conditions: by blocking activation of SMO or GLI1/GLI2; cited from earlier work
SSTR2 [1] = experiment: Differential expression of SSTR2 (qRT-PCR) in iPSC generated pituitary organoids; type: cell-based, human; conditions: for effect on mifepristone-induced SSTR2 expression / effect on relacorilant-induced SSTR2 expression: iPSC organoids; for effect on mifepristone-induced SSTR2 expression: pretreatment 2 h before mifepristone (500 nM); for effect on relacorilant-induced SSTR2 expression: pretreatment 2 h before relacorilant (500 nM); for differential expression of SSTR2: iPSCctrl organoids, compound alone, 48 h, FIG. 5C, D
Experimental: (§1) Sonic Hedgehog (SHH) was withdrawn from the organoid growth media 16 hours prior to treatment. The experimental treatment groups included: vehicle (Veh), mifepristone (500 nM, Selleckchem S2606), GANT61 (5 μM, Stemcell Technologies 73692), ketoconazole (Keto, 10 μM, Selleckchem S1353), pasireotide (Pas, 100 nM, Target Mol TP2207-SB001), octreotide (Oct, 100 nM, Selleckchem P1017), mifepristone plus GANT61, mifepristone plus Keto, mifepristone plus Pas, relacorilant (500 nM, Corcept Therapeutics CORT125134), relacorilant plus Pas, relacorilant plus Oct, or dexamethasone (Dexa, 100 nM, SIGMA S4902). In the combination treatments, cultures were pretreated with the GANT61, Keto, Pas or Oct for 2 hours prior to treatment with mifepristone or Rela. PitNET tissue derived organoids hPITO36, hPITO37, hPITO38, hPITO39, and hPITO40 were treated with the following experimental conditions: Vehicle (1), pasireotide (2), relacorilant (3), relacorilant & pasireotide (4), mifepristone (5), mifepristone & pasireotide (6). The IC50 values used for each hPITO line for each drug were determined based on dose responses (FIG. 12). All organoid cultures were treated for 48 hours prior to analysis.
(§2) RNA was extracted from PitNET tissue or iPSC generated organoids using TRI Reagent® (Molecular Research Center Inc TR118) and the High Capacity cDNA Reverse Transcription Kit (Applied Biosystems, Foster City, CA) was used for cDNA synthesis of RNA following the recommended protocol. For each sample, 60 ng RNA was reverse transcribed to yield approximately […] total cDNA that was then used for the qRT-PCR. Pre-designed real-time polymerase chain reaction assays were purchased for the following genes: TPit (Thermo Fisher Scientific 4331182 Hs00193027), SF1 (Thermo Fisher Scientific 4331182 Hs00610436), SSTR2 (Thermo Fisher Scientific 4331182 Hs00265624_s1), SSTR5 (Thermo Fisher Scientific 4331182 Hs00990407_s1), POMC (Thermo Fisher Scientific 4331182 Hs01596743_ml), hPRT (Thermo Fisher Scientific 4331182 Hs02800695_ml), and FKBP5 (Thermo Fisher Scientific 4331182 Hs01561006_m1). Polymerase chain reaction amplifications were performed in a total volume of 20 μL containing 20× TaqMan Expression Assay primers, 2× TaqMan Universal Master Mix (Applied Biosystems, TaqMan® Gene Expression Systems), and cDNA template. Each polymerase chain reaction amplification was performed in triplicate wells in a StepOne Real-Time PCR System (Applied Biosystems) by using the following conditions: 500C 2 minutes, 95° C. 10 minutes, 95° C. 15 seconds (denature) and 60° C. 1 minute (anneal/extend) for 40 cycles. Fold change was calculated as the following: (Ct-Ct high)=n target, 2ntarget/2nHPRT=fold change where Ct=threshold cycle. The results were expressed as average fold change in or differential gene expression relative to control, with HPRT used as an internal control according to Livak and Schmittgen.

SSTR5 = experiment: Differential expression of SSTR5 (qRT-PCR) in iPSC generated pituitary organoids; type: cell-based, human; conditions: for effect on mifepristone-induced SSTR5 expression / effect on relacorilant-induced SSTR5 expression: iPSC organoids; for effect on mifepristone-induced SSTR5 expression: pretreatment 2 h before mifepristone (500 nM); for effect on relacorilant-induced SSTR5 expression: pretreatment 2 h before relacorilant (500 nM); for differential expression of SSTR5: iPSCctrl organoids, compound alone, 48 h, FIG. 5C, D
Experimental: as §1, §2

FKBP5 = FKBP5 expression (GR target gene, qRT-PCR) in PitNET organoids; type: cell-based, human; conditions: PitNET organoids (iPSCctrl, iPSCUSP48MV, iPSCUSP8), 48 h, FIG. 16A-C
Experimental: as §1
as §2, with “10 minutes, 95° C. 15 seconds (denature) and 60° C. 1 minute (anneal/extend) for 40 cycles.” left out

SSTR2 [2] = conditions: cited from earlier work

## CC(=O)N1CCN(c2ccc(OCC3COC(Cn4ccnc4)(c4ccc(Cl)cc4Cl)O3)cc2)CC1 (stereo not drawn) [ketoconazole]
Hedgehog pathway
  cell proliferation: reduce cell proliferation and cell viability
  cell viability: reduce cell proliferation and cell viability
SSTR2 [1]
  effect on mifepristone-induced SSTR2 expression: no effect; also recorded: failed to block the induction
  effect on relacorilant-induced SSTR2 expression: failed to block the induction
  differential expression of SSTR2: no effect
SSTR2 [1]; listed as ketoconozaole
  effect on mifepristone-induced SSTR2 expression: no effect
  effect on relacorilant-induced SSTR2 expression: no effect
SSTR5
  effect on mifepristone-induced SSTR5 expression: no effect; also recorded: failed to block the induction
  effect on relacorilant-induced SSTR5 expression: no effect; also recorded: failed to block the induction
  differential expression of SSTR5: no effect
SSTR5; listed as ketoconozaole
  effect on mifepristone-induced SSTR5 expression: no effect
  effect on relacorilant-induced SSTR5 expression: no effect

## CN(C)c1ccccc1CN1CCCN(Cc2ccccc2N(C)C)C1c1ccncc1 [GANT61]
Hedgehog pathway
  cell proliferation: reduce cell proliferation and cell viability
  cell viability: reduce cell proliferation and cell viability
SSTR2 [1]
  effect on mifepristone-induced SSTR2 expression: reduced the induction of SSTR2 expression; also recorded: blocks SSTR2 and SSTR5 expression; also recorded: inhibited
  effect on relacorilant-induced SSTR2 expression: blocks SSTR2 and SSTR5 expression; also recorded: inhibited
  differential expression of SSTR2: no effect
SSTR5
  effect on mifepristone-induced SSTR5 expression: blocks SSTR2 and SSTR5 expression; also recorded: reduced; also recorded: inhibited
  effect on relacorilant-induced SSTR5 expression: reduced the induction of SSTR5 expression; also recorded: blocks SSTR2 and SSTR5 expression; also recorded: inhibited
  differential expression of SSTR5: no effect

## C[C@@H]1C[C@H]2[C@@H]3CCC4=CC(=O)C=C[C@]4(C)[C@@]3(F)[C@@H](O)C[C@]2(C)[C@@]1(O)C(=O)CO [dexamethasone]
FKBP5
  differential expression of FKBP5: significant induction in gene expression
SSTR2 [1]
  differential expression of SSTR2: significantly decreased expression
SSTR5
  differential expression of SSTR5: significantly decreased expression

## CC(C)[C@@H]1NC(=O)[C@H](CCCCN)NC(=O)[C@@H](Cc2c[nH]c3ccccc23)NC(=O)[C@H](Cc2ccc(O)cc2)NC(=O)[C@@H](NC(=O)[C@H](N)Cc2ccc3ccccc3c2)CSSC[C@@H](C(=O)N[C@H](C(N)=O)[C@@H](C)O)NC1=O [lanreotide]
SSTR2 [2]
  binding to / activation of SSTR2: preferentially binds or activates somatostatin receptor type 2 (SSTR2)
